Reference: US11717476B2, “Moringa peregrina seed extract rich in 2,5-diformylfuran, process for obtaining same and use thereof in cosmetic compositions” (priority 2020, dated 2023)

Columns and labels:
telomerase = test: Telomerase activity in adult keratinocytes in monolayer culture (PCR-ELISA kit); format: cell-based, human; conditions: 100 ng/ml; 24 hours
Method: Protocol: Human keratinocytes were obtained from a donor. To perform the experiments, the keratinocytes were used at a low passage level (i.e., cell isolation passage number 2). The cells were grown as a monolayer until they reached about 75% of confluence before being used in the experiment. Reference product: FK228 at 100 ng/ml was used as a reference inducer of telomerase 1 activity. Incubation protocol: […] At the end of the incubation period, the telomerase was extracted from the cells and its activity was determined by means of a specific, sensitive kit. The principle of the telomerase kit is to measure the telomerase activity by coupling a PCR step (in which telomerase functions as regards its elongation activity) with an ELISA step for semi-quantitative determination of amounts of telomerase elongation product. The results are expressed in arbitrary units for the telomerase activity level (mean±S.D). The significance level between the “vehicle” and the “reference product” was evaluated by means of a Student's t test (*: p<0.05). The significance level between “control” and “test compound” was evaluated independently for each product by a one-way analysis of variance (one-way ANOVA) followed by a Holm-Sidak test (*: p<0.05).

phospholipase A2 = target: T1, phospholipase A2 (Homo sapiens, UniProt P39877); test: sPLA2 (type V) Inhibitor Screening Assay Kit; format: biochemical; conditions: 1 mg in 100 μl
T1 construct: purchased
T1 sequence (P39877 21-138): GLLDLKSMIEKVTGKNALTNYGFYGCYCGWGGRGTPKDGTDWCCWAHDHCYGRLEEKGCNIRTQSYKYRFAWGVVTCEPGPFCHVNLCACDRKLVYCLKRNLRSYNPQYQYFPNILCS
Excerpt: The object of this study is to evaluate the modulation of the […] activity of the enzyme phospholipase A2 by one or more samples in an in vitro acellular model by means of the “SPLA2 (type V) Inhibitor Screening Assay Kit”. Phospholipase A2 is a key enzyme upstream of the inflammatory process which is triggered by the arachidonic cascade. A buffered solution of phospholipase A2 reacts with a specific substrate, diheptanoyl thio-PC, and transforms it into a compound which binds to a chromogen, DTNB, with agitation at room temperature. The phospholipase A2 activity may thus be evaluated by measuring the absorbance at 413 nm. […] The substrate transformed by the enzyme is stained by means of the chromogen DTNB by agitation at room temperature. […] The modulation of this activity is expressed as a percentage of inhibition or of activation of the phospholipase A2 activity in the absence of the active agent, i.e. only in the presence of the enzyme substrate (diheptanoyl thio-PC).
At the end of the incubation period, the activity of the enzyme phospholipase A2 with and without the test product or the reference product is evaluated by measuring the absorbance of the reaction media at 413 nm. For each concentration tested, the modulation of the phospholipase A2 enzymatic activity with the test product is calculated according to the following formula. […]

Row | SMILES | increase of telomerase activity (telomerase) | inhibition of PLA2 activity (phospholipase A2)
1 | C/C=C1\NC(=O)[C@H]2CSSCC/C=C/[C@H](CC(=O)N[C@H](C(C)C)C(=O)N2)OC(=O)[C@H](C(C)C)NC1=O [FK228] | 28.0% | –
2 | CCCCCCCCCCCCCCCCSC[C@H](COP(=O)(O)OCC[N+](C)(C)C)NC(=O)CCCCCCCCCCCCCCC [thioetheramide-PC] | – | 93%
